Assay results from ChEMBL document CHEMBL3611972, “Leishmanicidal, antiproteolytic, and mutagenic evaluation of alkyltriazoles and alkylphosphocholines” (Eur J Med Chem, 2015).
Values belong to the molecule of their own block, whether it stands above or below them.

Legend:
Salmonella typhimurium [1] = assay: Mutagenicity in Salmonella typhimurium TA102 assessed as mutagenicity index at 700.00 uM/plate incubated for 90 mins at 37 degC in absence of liver S9 fractions by Ames test relative to untreated control; type: toxicity, organism-based; conditions: salmonella enterica subsp. enterica serovar typhimurium, 1.5 h
[2] = Selectivity index, ratio of CC50 for mouse peritoneal macrophages to IC50 for Leishmania amazonensis MHOM/BR/71973/M2269 amastigotes infected in mouse peritoneal macrophages; type: functional
[3] = Inhibition of Leishmania mexicana cysteine protease r-CPB2.8 using Z-FR-AMC fluorogenic substrate by spectrofluorometry
Salmonella typhimurium [4] = assay: Mutagenicity in Salmonella typhimurium TA100 assessed as mutagenicity index at 296.15 uM/plate incubated for 90 mins at 37 degC in presence of liver S9 fractions by Ames test relative to untreated control; type: toxicity, organism-based; conditions: salmonella enterica subsp. enterica serovar typhimurium, s9, 1.5 h
Leishmania amazonensis [5] = assay: microbe, parasite or virus in culture; type: functional, organism-based; conditions: MHOM/BR/71973/M2269, 72 h
Description: Leishmanicidal activity against Leishmania amazonensis MHOM/BR/71973/M2269 promastigotes assessed as reduction in surviving parasites incubated for 72 hrs by Neubauer's chamber based cell counting method

Leishmania amazonensis [6] = assay: Leishmanicidal activity against Leishmania amazonensis MHOM/BR/71973/M2269 amastigotes infected in mouse peritoneal macrophages assessed as reduction in surviving parasites incubated for 72 hrs by Giemsa staining based optical light microscopy; type: functional, organism-based; conditions: MHOM/BR/71973/M2269, 72 h
Salmonella typhimurium [7] = assay: Mutagenicity in Salmonella typhimurium TA98 assessed as mutagenicity index at 570.37 uM/plate incubated for 90 mins at 37 degC in presence of liver S9 fractions by Ames test relative to untreated control; type: toxicity, organism-based; conditions: salmonella enterica subsp. enterica serovar typhimurium, s9, 1.5 h
Salmonella typhimurium [8] = assay: Mutagenicity in Salmonella typhimurium TA102 assessed as mutagenicity index at 150.98 uM/plate incubated for 90 mins at 37 degC in presence of liver S9 fractions by Ames test relative to untreated control; type: toxicity, organism-based; conditions: salmonella enterica subsp. enterica serovar typhimurium, s9, 1.5 h
Salmonella typhimurium [9] = assay: Mutagenicity in Salmonella typhimurium TA97a assessed as mutagenicity index at 700.00 uM/plate incubated for 90 mins at 37 degC in presence of liver S9 fractions by Ames test relative to untreated control; type: toxicity, organism-based; conditions: salmonella enterica subsp. enterica serovar typhimurium, s9, 1.5 h
Salmonella typhimurium [10] = assay: Mutagenicity in Salmonella typhimurium TA102 assessed as mutagenicity index at 570.37 uM/plate incubated for 90 mins at 37 degC in absence of liver S9 fractions by Ames test relative to untreated control; type: toxicity, organism-based; conditions: salmonella enterica subsp. enterica serovar typhimurium, 1.5 h
Salmonella typhimurium [11] = assay: Mutagenicity in Salmonella typhimurium TA98 assessed as mutagenicity index at 700.00 uM/plate incubated for 90 mins at 37 degC in presence of liver S9 fractions by Ames test relative to untreated control; type: toxicity, organism-based; conditions: salmonella enterica subsp. enterica serovar typhimurium, s9, 1.5 h
Salmonella typhimurium [12] = assay: Mutagenicity in Salmonella typhimurium TA100 assessed as mutagenicity index at 150.98 uM/plate incubated for 90 mins at 37 degC in absence of liver S9 fractions by Ames test relative to untreated control; type: toxicity, organism-based; conditions: salmonella enterica subsp. enterica serovar typhimurium, 1.5 h
Salmonella typhimurium [13] = assay: Mutagenicity in Salmonella typhimurium TA100 assessed as mutagenicity index at 435.85 uM/plate incubated for 90 mins at 37 degC in absence of liver S9 fractions by Ames test relative to untreated control; type: toxicity, organism-based; conditions: salmonella enterica subsp. enterica serovar typhimurium, 1.5 h
[14] = Cytotoxicity against mouse peritoneal macrophages assessed as reduction in cell viability incubated for 72 hrs by MTT assay; type: cell-based, Peritoneal macrophage cell
Salmonella typhimurium [15] = assay: Mutagenicity in Salmonella typhimurium TA97a assessed as mutagenicity index at 435.85 uM/plate incubated for 90 mins at 37 degC in absence of liver S9 fractions by Ames test relative to untreated control; type: toxicity, organism-based; conditions: salmonella enterica subsp. enterica serovar typhimurium, 1.5 h
[16] = Mutagenicity in CHOK1 cells assessed as induction of chromosomal DNA mutation by measuring nuclear division index level at 6.41 to 25.63 incubated for 3 hrs by fluorescence microscopy; type: toxicity, cell-based, Cricetulus griseus; conditions: chinese hamster, cho-k1, 3 h
[17] = Mutagenicity in CHOK1 cells assessed as induction of chromosomal DNA mutation by measuring nuclear division index level at 14.51 to 58.04 incubated for 3 hrs by fluorescence microscopy; type: toxicity, cell-based, Cricetulus griseus; conditions: chinese hamster, cho-k1, 3 h
Salmonella typhimurium [18] = assay: Mutagenicity in Salmonella typhimurium TA98 assessed as mutagenicity index at 616.38 uM/plate incubated for 90 mins at 37 degC in absence of liver S9 fractions by Ames test relative to control; type: toxicity, organism-based; conditions: salmonella enterica subsp. enterica serovar typhimurium, 1.5 h
Salmonella typhimurium [19] = assay: Mutagenicity in Salmonella typhimurium TA98 assessed as mutagenicity index at 1185.19 uM/plate incubated for 90 mins at 37 degC in presence of liver S9 fractions by Ames test relative to control; type: toxicity, organism-based; conditions: salmonella enterica subsp. enterica serovar typhimurium, s9, 1.5 h
Salmonella typhimurium [20] = assay: Mutagenicity in Salmonella typhimurium TA100 assessed as mutagenicity index at 1185.19 uM/plate incubated for 90 mins at 37 degC in presence of liver S9 fractions by Ames test relative to control; type: toxicity, organism-based; conditions: salmonella enterica subsp. enterica serovar typhimurium, s9, 1.5 h
Salmonella typhimurium [21] = assay: Mutagenicity in Salmonella typhimurium TA100 assessed as mutagenicity index at 313.73 uM/plate incubated for 90 mins at 37 degC in presence of liver S9 fractions by Ames test relative to control; type: toxicity, organism-based; conditions: salmonella enterica subsp. enterica serovar typhimurium, s9, 1.5 h
Salmonella typhimurium [22] = assay: Mutagenicity in Salmonella typhimurium TA100 assessed as mutagenicity index at 1185.19 uM/plate incubated for 90 mins at 37 degC in absence of liver S9 fractions by Ames test relative to control; type: toxicity, organism-based; conditions: salmonella enterica subsp. enterica serovar typhimurium, 1.5 h
Salmonella typhimurium [23] = assay: Mutagenicity in Salmonella typhimurium TA98 assessed as mutagenicity index at 1454.55 uM/plate incubated for 90 mins at 37 degC in absence of liver S9 fractions by Ames test relative to control; type: toxicity, organism-based; conditions: salmonella enterica subsp. enterica serovar typhimurium, 1.5 h
Salmonella typhimurium [24] = assay: Mutagenicity in Salmonella typhimurium TA100 assessed as mutagenicity index at 905.66 uM/plate incubated for 90 mins at 37 degC in absence of liver S9 fractions by Ames test relative to control; type: toxicity, organism-based; conditions: salmonella enterica subsp. enterica serovar typhimurium, 1.5 h
Salmonella typhimurium [25] = assay: Mutagenicity in Salmonella typhimurium TA100 assessed as mutagenicity index at 616.38 uM/plate incubated for 90 mins at 37 degC in absence of liver S9 fractions by Ames test relative to control; type: toxicity, organism-based; conditions: salmonella enterica subsp. enterica serovar typhimurium, 1.5 h
Salmonella typhimurium [26] = assay: Mutagenicity in Salmonella typhimurium TA97a assessed as mutagenicity index at 313.73 uM/plate incubated for 90 mins at 37 degC in presence of liver S9 fractions by Ames test relative to control; type: toxicity, organism-based; conditions: salmonella enterica subsp. enterica serovar typhimurium, s9, 1.5 h
Salmonella typhimurium [27] = assay: Mutagenicity in Salmonella typhimurium TA102 assessed as mutagenicity index at 905.66 uM/plate incubated for 90 mins at 37 degC in presence of liver S9 fractions by Ames test relative to control; type: toxicity, organism-based; conditions: salmonella enterica subsp. enterica serovar typhimurium, s9, 1.5 h
Salmonella typhimurium [28] = assay: Mutagenicity in Salmonella typhimurium TA97a assessed as mutagenicity index at 905.66 uM/plate incubated for 90 mins at 37 degC in presence of liver S9 fractions by Ames test relative to control; type: toxicity, organism-based; conditions: salmonella enterica subsp. enterica serovar typhimurium, s9, 1.5 h
Salmonella typhimurium [29] = assay: Mutagenicity in Salmonella typhimurium TA100 assessed as mutagenicity index at 313.73 uM/plate incubated for 90 mins at 37 degC in absence of liver S9 fractions by Ames test relative to control; type: toxicity, organism-based; conditions: salmonella enterica subsp. enterica serovar typhimurium, 1.5 h
Salmonella typhimurium [30] = assay: Mutagenicity in Salmonella typhimurium TA97a assessed as mutagenicity index at 1185.19 uM/plate incubated for 90 mins at 37 degC in presence of liver S9 fractions by Ames test relative to control; type: toxicity, organism-based; conditions: salmonella enterica subsp. enterica serovar typhimurium, s9, 1.5 h
Salmonella typhimurium [31] = assay: Mutagenicity in Salmonella typhimurium TA98 assessed as mutagenicity index at 313.73 uM/plate incubated for 90 mins at 37 degC in absence of liver S9 fractions by Ames test relative to control; type: toxicity, organism-based; conditions: salmonella enterica subsp. enterica serovar typhimurium, 1.5 h
Salmonella typhimurium [32] = assay: Mutagenicity in Salmonella typhimurium TA98 assessed as mutagenicity index at 1454.55 uM/plate incubated for 90 mins at 37 degC in presence of liver S9 fractions by Ames test relative to control; type: toxicity, organism-based; conditions: salmonella enterica subsp. enterica serovar typhimurium, s9, 1.5 h

IC50 [3]: 8.18 µM
IC50 (Leishmania amazonensis [5]): 28.5 µM
Compound: CS(=O)(=O)OCCCCCCCCCCCCn1cc(CCCO)nn1
Activity_index (Salmonella typhimurium [1]): 1
Ratio CC50/IC50 [2]: 11.47
Activity_index (Salmonella typhimurium [4]): 0.9
IC50 (Leishmania amazonensis [6]): 14.2 µM
Activity_index (Salmonella typhimurium [7]): 0.8
Activity_index (Salmonella typhimurium [8]): 1.1
Activity_index (Salmonella typhimurium [9]): 0.8
Activity_index (Salmonella typhimurium [10]): 1
Activity_index (Salmonella typhimurium [11]): 1.2
Activity_index (Salmonella typhimurium [12]): 1.1
Activity_index (Salmonella typhimurium [13]): 1.2
CC50 at 72 h [14]: 163 µM
Activity_index (Salmonella typhimurium [15]): 1.2
Activity [16]: Non-toxic

IC50 [3]: 0.857 µM
IC50 (Leishmania amazonensis [5]): 37.2 µM
Compound: CCOC(=O)c1cn(CCCCCCCCCOS(C)(=O)=O)nn1
Activity [17]: Non-toxic
Activity_index (Salmonella typhimurium [18]): 1.2
Ratio CC50/IC50 [2]: 12.82
Activity_index (Salmonella typhimurium [19]): 0.8
IC50 (Leishmania amazonensis [6]): 76.7 µM
Activity_index (Salmonella typhimurium [20]): 0.9
Activity_index (Salmonella typhimurium [21]): 0.9
Activity_index (Salmonella typhimurium [22]): 1.3
Activity_index (Salmonella typhimurium [23]): 1.4
Activity_index (Salmonella typhimurium [24]): 1.2
Activity_index (Salmonella typhimurium [25]): 1.3
Activity_index (Salmonella typhimurium [26]): 0.8
Activity_index (Salmonella typhimurium [27]): 1.3
Activity_index (Salmonella typhimurium [28]): 0.9
Activity_index (Salmonella typhimurium [29]): 1.2
Activity_index (Salmonella typhimurium [30]): 0.7
CC50 at 72 h [14]: 983 µM
Activity_index (Salmonella typhimurium [31]): 1.5
Activity_index (Salmonella typhimurium [32]): 0.8
